From patent US9713608B2, “Method for topically treating actinic keratosis on the trunk (except chest) or extremities with ingenol 3-(3,5-diethylisoxazole-4-carboxylate)” (LEO Laboratories Limited, priority 2013, dated 2017)

What was measured:
[1] = tested on: actinic keratosis (AK) lesions; test: Phase 1 exploratory trial: treatment response of AK lesions (clinical count and Reflectance Confocal Microscopy); assay type: in vivo, human; settings: for RCM findings in lesions: overall, clinically visible AK lesions and subclinical lesions
From the text: To evaluate treatment responses on AKs of the three concentrations of ingenol 3-(3,5-diethylisoxazole-4-carboxylate) gel compared to the ingenol mebutate gel as assessed by reduction in number of clinically visible selected AK lesions eight weeks after treatment.
To evaluate treatment responses on AKs of the three concentrations of ingenol 3-(3,5-diethylisoxazole-4-carboxylate) gel compared to the ingenol mebutate gel as assessed by Reflectance Confocal Microscopy (RCM) scoring of the clinically visible selected AK lesions before and eight weeks after treatment.
(§1) The trial population included 40 subjects at least 18 years of age with 12-16 clinically typical, visible, discrete, non-keratotic AK lesions (referred to as selected AK lesions) suitable for RCM within four separate 25 cm^2 (5×5 cm) selected treatment areas (STAs) on the dorsal aspects of the forearms. Each STA was to be separated by at least 5 cm from other STAs.
Whenever possible, four visible and discrete selected AK lesions are identified within each of the four STAs. However, one STA with three selected AK lesions is acceptable for a subject. The selected AK lesions are assessed by RCM. If a selected AK lesion could not be confirmed as an AK lesion by RCM, another STA with selected AK lesions has to be identified. In addition, each subject is to have one subclinical AK lesion suitable for RCM within each STA (these subclinical AKs are referred to as selected subclinical AK lesions).
Treatment efficacy is included as a secondary endpoint and assessed by change in number of clinically visible AK lesions from baseline to 8 weeks after treatment and change in RCM scores from baseline to 8 weeks after treatment.

[2] = difficult to treat versus more easily treated anatomical regions; cited from earlier work
[3] = Phase 1 exploratory trial: safety and tolerability of topical gel on forearms of subjects with actinic keratosis; assay type: in vivo, human; settings: for mean composite LSR scores, time of peak: 8-week trial period; for mean composite LSR scores at Week 8: Week 8, relative to baseline; for number of SAEs of SCC within treated areas: four SAEs in three subjects, about three times more fields treated with ingenol 3-(3,5-diethylisoxazole-4-carboxylate); for most common treatment related AEs: human, in vivo
From the text: Local skin reactions (LSRs) occurs sometimes in the treated area. Often LSRs are quantified by a scale evaluating the following types of skin reactions: erythema, flaking/scaling, crusting, swelling, vasiculation/pustulation, and erosion/ulceration which are categorized into categories 0-4 depending on the severity of the reactions.
A Phase 1 exploratory trial evaluating safety and tolerability of topical administration of ingenol 3-(3,5-diethylisoxazole-4-carboxylate) gel, 0.025%, 0.05% and 0.075% compared to ingenol mebutate gel 0.05% applied on two consecutive days to four separate 25 cm^2 treatment areas on the forearms of subjects with actinic keratosis (field therapy). A single-centre, randomised, active controlled, intra-patient controlled, investigator blind trial.
It is presently believed that ingenol 3-(3,5-diethylisoxazole-4-carboxylate) has a higher efficacy and/or milder LSR profile than ingenol mebutate.
This was a phase 1, single-centre, randomised, active controlled, intra-patient controlled, investigator blinded trial with intra-individual comparisons to explore the safety and tolerability of ingenol 3-(3,5-diethylisoxazole-4-carboxylate) gel 0.025%, 0.05%, and 0.075% compared to ingenol mebutate gel 0.05% applied once daily for two consecutive days on the forearms of subjects with AK.
as §1
For each eligible subject, the four STAs are randomised to receive one of four of the investigational product (IP or IPs): • ingenol 3-(3,5-diethylisoxazole-4-carboxylate) gel 0.025% • ingenol 3-(3,5-diethylisoxazole-4-carboxylate) gel 0.05% • ingenol 3-(3,5-diethylisoxazole-4-carboxylate) gel 0.075% • Ingenol mebutate gel 0.05%
Each IP is to be applied to one of the four STAs on each subject according to random assignment on two consecutive days (Day 1 and Day 2). This ensured that all subjects are treated with the four products on both treatment days. The trial consisted of three periods, a screening period, a treatment period, and an observation and follow-up period.
Each IP is applied to one of the four STAs on each subject according to random assignment on two consecutive days (Day 1 and Day 2). The IPs are applied by a specified investigational staff member in the clinical study protocol. Subjects are instructed about post-treatment care and provided with a patient safety and study medication instruction sheet.

[4] = tested on: dermal tumours; test: in vivo studies in mice, effects on dermal tumours; settings: compared to ingenol mebutate
From the text: The exact mechanism of action of ingenol 3-(3,5-diethylisoxazole-4-carboxylate) continues to be investigated, but it is believed that ingenol 3-(3,5-diethylisoxazole-4-carboxylate) has a dual mechanism of action inducing cell death as well as stimulation of immune response.

Row | SMILES | RCM findings in lesions [1] | local skin reactions after a given dose [2] | mean composite LSR scores, time of peak [3] | mean composite LSR scores at Week 8 [3] | number of SAEs of SCC within treated areas [3] | most common treatment related AEs [3] | change of RCM scores ([1]; baseline to 8 weeks, between the two actives) | efficacy in eliminating dermal tumours [4] | incidence of AEs inside STAs ([3]; between treatments) | events of Bowen's disease inside treated area ([3]; possibly related AE, reclassified to SAE by sponsor)
1 | C/C=C(/C)C(=O)O[C@H]1C(C)=C[C@]23C(=O)[C@@H](C=C(CO)[C@@H](O)[C@]12O)[C@H]1[C@@H](C[C@H]3C)C1(C)C [ingenol mebutate, reference compound] | honeycomb pattern of lesions improved, keratosis decreased, and the thickness of stratum corneum and viable epidermis decreased | milder on difficult to treat anatomical regions | peaked at Week 1 | below baseline at Week 8 | two | pruritus, burning sensation and tenderness |  |  |  | 
2 | CCc1noc(CC)c1C(=O)O[C@H]1C(C)=C[C@]23C(=O)[C@@H](C=C(CO)[C@@H](O)[C@]12O)[C@H]1[C@@H](C[C@H]3C)C1(C)C [ingenol 3-(3,5-diethylisoxazole-4-carboxylate)] | honeycomb pattern of lesions improved, keratosis decreased, and the thickness of stratum corneum and viable epidermis decreased |  | peaked at Week 1 | below baseline at Week 8 | Two | pruritus, burning sensation and tenderness | no difference | more efficacious than ingeno mebutate | no difference | one
